In brackets after ≈: the same amount, converted by molar mass.
Tested on: Clostridioides difficile
Experiment: Antibacterial activity against Clostridium difficile ATCC 43255 measured after 48 hrs by two fold serial dilution method
Assay type: functional

Row | Structure (SMILES) | MIC [µg/mL]
1 | CCCCNc1c[nH]nc1-c1nc(-c2ccc(Oc3ccc(C(F)(F)F)cc3)cc2)no1 | > 128
2 | FC(F)(F)c1ccc(Oc2ccc(-c3noc(-c4c[nH]cn4)n3)cc2)cc1 | 8 (≈ 21.5 µM)
3 | FC(F)(F)c1ccc(Oc2ccc(-c3noc(-c4n[nH]cc4Cl)n3)cc2)cc1 | > 128
4 | FC(F)(F)c1ccc(Oc2ccc(-c3noc(-c4n[nH]cc4Nc4cc5ccccc5[nH]4)n3)cc2)cc1 | > 128
5 | FC(F)(F)c1ccc(Oc2ccc(-c3noc(-c4ccncc4)n3)cc2)cc1 | > 128
6 | Oc1ccc(-c2nc(-c3ccc(OC4CC4)cc3)no2)cc1 | > 128
7 | Oc1ccc(-c2cc(-c3ccc(Oc4ccccc4)cc3)no2)cc1 | > 128
8 | O=C(Nc1c[nH]nc1-c1nc(-c2ccc(Oc3ccc(C(F)(F)F)cc3)cc2)no1)c1ccccn1 | > 128
9 | Oc1ccc(-c2nc(-c3ccc(N4CCOCC4)cc3)no2)cc1 | > 128
10 | c1cc2cc(-c3nc(-c4ccc5occc5c4)no3)ccc2[nH]1 | > 128
11 | Cl.NCCCOc1ccc(-c2noc(-c3ccc(O)cc3)n2)cc1 | 64
12 | Cl.NCc1ccc(-c2nc(-c3ccc(OC4CCCC4)cc3)no2)cc1 | 8
13 | O=[N+]([O-])c1ccc(-c2noc(-c3ccc4[nH]ccc4c3)n2)cc1 | > 128
14 | Cn1c(-c2nc(-c3ccc(OC4CCCC4)cc3)no2)cnc1[N+](=O)[O-] | 32 (≈ 90.1 µM)
15 | Cl.Oc1ccc(-c2nc(-c3ccc(OC4CCNC4)cc3)no2)cc1 (stereo unspecified) | 64
16 | O=C1C[C@@H](c2nc(-c3ccc(Oc4ccc(C(F)(F)F)cc4)cc3)no2)CN1 | > 128
17 | Oc1ccc(-c2nc(-c3ccc(Oc4ccc(C(F)(F)F)cc4)cc3)no2)cn1 | > 128
18 | O=[N+]([O-])c1cc(Oc2ccc(C(F)(F)F)cc2)cnc1-c1noc(-c2ccc(O)cc2)n1 | > 128
19 | FC(F)(F)c1ccc(Oc2ccc(-c3noc(-c4ccc(Br)cc4)n3)cc2)cc1 | > 128
20 | FC(F)(F)Oc1ccc(-c2noc(-c3ccc4[nH]ccc4c3)n2)cc1 | > 128
21 | Cl.O=[N+]([O-])c1c[nH]c(-c2nc(-c3ccc(CN4CCCC4)cc3)no2)n1 | > 128
22 | c1nc2cc(-c3nc(-c4ccc(OC5CCCC5)cc4)no3)ccc2[nH]1 | 128 (≈ 370 µM)
23 | COc1ccc(-c2noc(-c3ccc(O)cc3)n2)cc1 | > 128
24 | COc1ccc(-c2nc(-c3ccc(Oc4ccc(C(F)(F)F)cc4)cc3)no2)cc1OC | > 128
25 | FC(F)(F)c1ccc(Oc2ccc(-c3noc(-c4n[nH]cc4I)n3)cc2)cc1 | > 128
26 | Oc1ccc(-c2nnc(-c3ccc(OC4CCCC4)cc3)o2)cc1 | > 128

Row | Structure (SMILES) | MIC [µg/mL]
27 | c1cc2cc(-c3nc(-c4ccc5c(c4)CCN5)no3)ccc2[nH]1 | > 128
28 | O=[N+]([O-])c1ccc(-c2nc(-c3ccc(Oc4ccc(C(F)(F)F)cc4)cc3)no2)cc1 | > 128
29 | CC(C)(C)OC(=O)N1CCC(Oc2ccc(-c3noc(-c4nc([N+](=O)[O-])c[nH]4)n3)cc2)CC1 | > 128
30 | CC(C)S(=O)(=O)Oc1ccc(-c2noc(-c3ccc(O)cc3)n2)cc1 | > 128
31 | c1cc2cc(-c3nc(-c4ccc(OC5CCCC5)cc4)no3)ccc2[nH]1 | 8 (≈ 23.2 µM)
32 | c1cc(-c2noc(-c3ccc4c(c3)CCN4)n2)ccc1OC1CCCC1 | > 128
33 | Oc1ccc(-c2nc(-c3ccc(Oc4ccccc4CBr)cc3)no2)cc1 | 8 (≈ 18.9 µM)
34 | c1cc2cc(-c3nc(-c4ccc5c(c4)OCO5)no3)ccc2[nH]1 | > 128
35 | N#Cc1ccc(Oc2ccc(-c3noc(-c4ccc(O)cc4)n3)cc2)cc1 | > 128
36 | O=[N+]([O-])c1ccc(-c2nc(-c3ccc(OC4CCCC4)cc3)no2)cc1 | > 128
37 | C[C@@H](N)c1nc(-c2ccc(OC3CCCC3)cc2)no1 | > 128
38 | CCCOc1ccc(-c2noc(-c3ccc(O)cc3)n2)cc1 | > 128
39 | O=C1C[C@H](c2nc(-c3ccc(Oc4ccc(C(F)(F)F)cc4)cc3)no2)CN1 | > 128
40 | Clc1nc(-c2ccc(OC3CCCC3)cc2)no1 | > 128
41 | O=[N+]([O-])c1cn(CCO)c(-c2nc(-c3ccc(OC4CCCC4)cc3)no2)n1 | > 128
42 | Oc1ccc(-c2nc(-c3ccc4oc5ccc(F)cc5c4c3)no2)cc1 | > 128
43 | COc1ccc(-c2nc(-c3ccc(Oc4ccc(C(F)(F)F)cc4)cc3)no2)cc1[N+](=O)[O-] | > 128
44 | Oc1ccc(-c2nc(-c3ccc(Oc4ccc(C(F)(F)F)cc4)nc3)no2)cc1 | > 128
45 | O=C(O)c1ccc(-c2nc(-c3ccc(OC4CCCC4)cc3)no2)cc1 | > 128
46 | COC(OC)c1ccc(-c2noc(-c3ccc(O)cc3)n2)cc1 | > 128
47 | FC(F)(F)c1ccc(Oc2ccc(-c3noc(-c4n[nH]cc4Nc4c[nH]c5ncccc45)n3)cc2)cc1 | > 128
48 | FC(F)(F)c1ccc(Oc2ccc(-c3noc(-c4n[nH]cc4Nc4n[nH]c5ccccc45)n3)cc2)cc1 | > 128
49 | CCC(C)Nc1c[nH]nc1-c1nc(-c2ccc(Oc3ccc(C(F)(F)F)cc3)cc2)no1 (stereo unspecified) | > 128
50 | Clc1cccc(N2CCN(c3noc(-c4ccc5[nH]ccc5c4)n3)CC2)c1 | > 128
51 | Oc1ccc(-c2nc(N3CCN(c4cccc(Cl)c4)CC3)no2)cc1 | > 128
52 | O=[N+]([O-])c1c[nH]nc1-c1nc(-c2ccc(Oc3ccccc3)cc2)no1 | > 128

Row | Structure (SMILES) | MIC [µg/mL]
53 | O=C(c1ccc(-c2noc(-c3ccc(O)cc3)n2)cc1)C(F)(F)F | 8 (≈ 23.9 µM)
54 | Oc1ccc(Oc2ccc(-c3noc(-c4ccc(O)cc4)n3)cc2)cc1 | 64 (≈ 185 µM)
55 | Clc1ccc(N2CCN(c3noc(-c4ccc5[nH]ccc5c4)n3)CC2)cc1Cl | > 128
56 | Fc1ccccc1-c1noc(-c2ccc3[nH]ccc3c2)n1 | > 128
57 | FC(F)(F)c1ccc(Oc2ccc(-c3noc(-c4n[nH]cc4NC4CCCC4)n3)cc2)cc1 | > 128
58 | Oc1ccc(-c2nc(-c3ccc(OC4CCC4)cc3)no2)cc1 | > 128
59 | OCC#Cc1c[nH]nc1-c1nc(-c2ccc(Oc3ccc(C(F)(F)F)cc3)cc2)no1 | > 128
60 | CC(C)(C)Oc1ccc(-c2noc(-c3ccc(O)cc3)n2)cc1 | > 128
61 | Oc1ccc(-c2noc(-c3ccc(O)cc3)n2)cc1 | 128 (≈ 503 µM)
62 | Fc1ccc2oc3ccc(-c4noc(-c5ccc6[nH]ccc6c5)n4)cc3c2c1 | > 128
63 | FC(F)(F)c1ccc(Oc2ccc(-c3noc(-c4cn[nH]c4)n3)cc2)cc1 | > 128
64 | Nc1cc(-c2noc(-c3ccc(O)cc3)n2)ccc1Oc1ccccc1 | > 128
65 | CCCCOc1ccc(-c2noc(-c3ccc(O)cc3)n2)cc1 | > 128
66 | Oc1cc(-c2nc(-c3ccc(Oc4ccc(C(F)(F)F)cc4)cc3)no2)cc(F)c1O | > 128
67 | Oc1ccc(Cc2nc(-c3ccc(OC4CCCC4)cc3)no2)cc1 | 16 (≈ 47.6 µM)
68 | Oc1ccc(-c2nc(-c3ccc(OC4CCNCC4)cc3)no2)cc1 | 64 (≈ 190 µM)
69 | O=[N+]([O-])c1c[nH]c(Nc2c[nH]nc2-c2nc(-c3ccc(Oc4ccc(C(F)(F)F)cc4)cc3)no2)c1 | 8 (≈ 16.1 µM)
70 | Cl.NCCCCc1nc(-c2ccc(OC3CCCC3)cc2)no1 | 128
71 | Oc1ccc(-c2nc(-c3ccc4oc5ccccc5c4c3)no2)cc1 | > 128
72 | COc1cc(-c2nc(-c3ccc(Oc4ccc(C(F)(F)F)cc4)cc3)no2)cc(F)c1O | 16 (≈ 35.8 µM)
73 | Nc1cc(-c2nc(-c3ccc(Oc4ccc(C(F)(F)F)cc4)cc3)no2)cnc1O | > 128
74 | Oc1ccc(-c2nc(-c3ccc4oc5ccc(C(F)(F)F)cc5c4c3)no2)cc1 | > 128
75 | Oc1ccc(-c2nc(-c3ccc4[nH]c5ccccc5c4c3)no2)cc1 | > 128
76 | Oc1ccc(-c2nc(-c3ccc(Oc4ccc(I)cc4)cc3)no2)cc1 | 16 (≈ 35.1 µM)

Source: ChEMBL document CHEMBL5370591, “A Potent and Narrow-Spectrum Antibacterial against Clostridioides difficile Infection” (J Med Chem, 2023)
